Data: patent US20240034744A1, “COMPLEX COMPOUND OF COMPRISING THE CITRATE AND IRON ION AND THE FOOD COMPOSITION COMPRISING THE SAME” (priority 2022, published 2024)

Experiment: Measurement of solubility in water
Format: physicochemical
Details: 200 g/L in 15° C. water

Substance	proportion of the complex compound dissolved [%]	proportion of the complex compound precipitated [%]	time for dissolution (100% dissolved) [min]
iron-citrate complex compound [Comparative Example 1]	10	90	
iron-citrate complex compound [Example 1]	100		≤ 5
